Experimental data reported in US8252793B2, “Bradykinin receptor agonists and uses thereof to treat ocular hypertension and glaucoma” (Alcon Research, Ltd., priority 2010, dated 2012).

Assays:
[1] = target: T1, BK receptors in human ciliary muscle cells (h-CM) (Homo sapiens, UniProt P30411); test: Functional assay measuring [Ca2+]i mobilization (FLIPR) in h-CM cells; type: cell-based; settings: class symbols (in μM), read-out: CaM (EC50)
T1 construct: h-CM cells expressing BK receptors were seeded; endogenous in cells; host or cells: human ciliary muscle (h-CM) cells
T1 sequence (P30411 1-391): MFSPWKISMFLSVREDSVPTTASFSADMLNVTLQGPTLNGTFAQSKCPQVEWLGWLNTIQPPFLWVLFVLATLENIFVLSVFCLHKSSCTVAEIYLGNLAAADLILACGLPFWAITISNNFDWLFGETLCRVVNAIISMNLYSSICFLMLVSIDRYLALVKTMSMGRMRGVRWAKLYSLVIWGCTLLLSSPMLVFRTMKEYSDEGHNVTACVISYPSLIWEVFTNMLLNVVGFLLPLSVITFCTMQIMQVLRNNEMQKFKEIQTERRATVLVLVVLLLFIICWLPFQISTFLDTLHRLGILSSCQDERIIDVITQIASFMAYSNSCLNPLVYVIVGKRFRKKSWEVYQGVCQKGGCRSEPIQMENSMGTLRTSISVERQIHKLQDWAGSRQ
Method in brief: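 Human ciliary muscle cells loaded 1 h at 23 °C with FLIPR calcium dye in HBSS, 20 mM HEPES, 2.5 mM probenecid, pH 7.4. EC50 by 4-parameter fit.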

[2] = target: T2, recombinant human bradykinin B2 receptor (Homo sapiens, UniProt P30411); test: [3H]-BK competition radioligand binding to human cloned B2 receptor (CHO cell membranes); settings: 0.2 nM [3H]-bradykinin, CHO membranes, 60 min 23° C.; mean ± SEM or single value; Ki from IC50 by Cheng-Prusoff; read-out: [3H]-BK Binding to Human Cloned B2 Receptor (Ki)
T2 construct: expressed in transfected cells; host or cells: Chinese hamster ovary (CHO) cells, membrane homogenates
T2 sequence (P30411 1-391): T1 sequence (P30411 1-391)

[3] = test system: primary human ciliary muscle cells (h-CM); test: Total prostaglandin (PG) release from primary h-CM cells (EIA); type: cell-based; settings: Homo sapiens, 1 h, 1 hour at 37° C., class symbols (in μM)
Method in brief: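 Confluent primary h-CM cells, serum-starved (0.8% FBS) 24 h, were exposed to a 9-point concentration series (0.1 nM-10 μM) of bradykinin or BK agonist for 1 hour at 37° C. Total PG released was then quantified by EIA.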

Compound	EC50 [1] [µM]	Ki [2] [nM]	EC50 [3] [µM]
CNC(=O)[C@@H]1CC[C@H](CCC(=O)NCC(=O)N(C)c2ccc(Cl)c(COc3cccc4c3nc(OC)n4Cc3ccccn3)c2Cl)CN1 [Compound 39, (2S,5R)-5-(3-((2-((2,4-dichloro-3-(((2-methoxy-1-(pyridin-2-ylmethyl)-1H-benzo[d]imidazol-4-yl)oxy)methyl)phenyl)(methyl)amino)-2-oxoethyl)amino)-3-oxopropyl)-N-methylpiperidine-2-carboxamide]	0.1 to 1	514	0.1 to 1
CNC(=O)c1ccc(CCC(=O)NCC(=O)N(C)c2ccc(C)c(COc3cccc4c3nc(OC)n4Cc3ccccn3)c2C)cc1 [Compound 56, 4-(3-((2-((3-(((2-methoxy-1-(pyridin-2-ylmethyl)-1H-benzo[d]imidazol-4-yl)oxy)methyl)-2,4-dimethylphenyl)(methyl)amino)-2-oxoethyl)amino)-3-oxopropyl)-N-methylbenzamide]	< 0.1	42	< 0.1
CCc1nc2c(OCc3c(Cl)ccc(N(C)C(=O)CNC(=O)CCc4ccc(NC(C)=O)nc4)c3Cl)cccn2c1C(O)c1ccccn1 (stereo not drawn) [Compound 57]	0.1 to 1	852	> 1
CCc1nc2c(OCc3c(Cl)ccc(N(C)C(=O)CNC(=O)CCC4CN=C(NC(C)=O)NC4)c3Cl)cccc2n1Cc1ccccn1 (stereo not drawn) [Compound 61]	< 0.1	451	> 1
COc1nc2c(OCc3c(Cl)ccc(N(C)C(=O)CNC(=O)[C@@H]4CCN(C(=O)OC(C)(C)C)C4)c3Cl)cccc2n1Cc1ccccn1 [Compound 62]	< 0.1	105	0.1 to 1
COc1nc2c(OCc3c(Cl)ccc(N(C)C(=O)CNC(=O)CCC4CN=C(N)NC4)c3Cl)cccc2n1Cc1ccccn1 (stereo not drawn) [Compound 63]	< 0.1	1190	> 1
CNC(=O)c1ccc(CCC(=O)NCC(=O)N(C)c2ccc(Cl)c(COc3cccc4c3nc(OC)n4Cc3ccccn3)c2Cl)cn1 [Compound 64, 5-(3-((2-((2,4-dichloro-3-(((2-methoxy-1-(pyridin-2-ylmethyl)-1H-benzo[d]imidazol-4-yl)oxy)methyl)phenyl)(methyl)amino)-2-oxoethyl)amino)-3-oxopropyl)-N-methylpicolinamide]	< 0.1	40.3	< 0.1

More lines, now with the values ahead:

EC50 [1] [µM]	Ki [2] [nM]	EC50 [3] [µM]	Compound
< 0.1	77	< 0.1	COc1nc2c(OCc3c(Cl)ccc(N(C)C(=O)CNC(=O)[C@H]4CCN(C(=O)OC(C)(C)C)C4)c3Cl)cccc2n1Cc1ccccn1 [Compound 34, (S)-tert-butyl 3-(2-((2,4-dichloro-3-((2-methoxy-1-(pyridin-2-ylmethyl)-1H-benzo[d]imidazol-4-yloxy)methyl)phenyl)(methyl)amino)-2-oxoethylcarbamoyl)pyrrolidine-1-carboxylate]
< 0.1	396	0.1 to 1	CNC(=O)C1CCCN(CC(=O)NCC(=O)N(C)c2ccc(Cl)c(COc3cccc4c3nc(OC)n4Cc3ccccn3)c2Cl)C1 (stereo not drawn) [Compound 35, 1-(2-(2-((2,4-dichloro-3-((2-methoxy-1-(pyridin-2-ylmethyl)-1H-benzo[d]imidazol-4-yloxy)methyl)phenyl)(methyl)amino)-2-oxoethylamino)-2-oxoethyl)-N-methylpiperidine-3-carboxamide]
< 0.1	220	0.1 to 1	CNC(=O)[C@H]1CCCN(CC(=O)NCC(=O)N(C)c2ccc(Cl)c(COc3cccc4c3nc(OC)n4Cc3ccccn3)c2Cl)C1 [Compound 36, (S)-1-(2-(2-((2,4-dichloro-3-((2-methoxy-1-(pyridin-2-ylmethyl)-1H-benzo[d]imidazol-4-yloxy)methyl)phenyl)(methyl)amino)-2-oxoethylamino)-2-oxoethyl)-N-methylpiperidine-3-carboxamide]
< 0.1	55.2	< 0.1	COC(=O)c1ccc(CCC(=O)NCC(=O)N(C)c2ccc(Cl)c(COc3cccc4c3nc(OC)n4Cc3ccccn3)c2Cl)cc1 [Compound 37, methyl 4-(3-(2-((2,4-dichloro-3-((2-methoxy-1-(pyridin-2-ylmethyl)-1H-benzo[d]imidazol-4-yloxy)methyl)phenyl)(methyl)amino)-2-oxoethylamino)-3-oxopropyl)benzoate]
< 0.1	332	< 0.1	CNC(=O)[C@H]1CC[C@H](CCC(=O)NCC(=O)N(C)c2ccc(Cl)c(COc3cccc4c3nc(OC)n4Cc3ccccn3)c2Cl)CN1 [Compound 38, (2R,5R)-5-(3-((2-((2,4-dichloro-3-(((2-methoxy-1-(pyridin-2-ylmethyl)-1H-benzo[d]imidazol-4-yl)oxy)methyl)phenyl)(methyl)amino)-2-oxoethyl)amino)-3-oxopropyl)-N-methylpiperidine-2-carboxamide]
< 0.1	450	0.1 to 1	CNC(=O)N1CCN(CC(F)(F)C(=O)NCC(=O)N(C)c2ccc(Cl)c(COc3cccc4c3nc(OC)n4Cc3ccccn3)c2Cl)CC1 [Compound 40, 4-(3-((2-((2,4-dichloro-3-(((2-methoxy-1-(pyridin-2-ylmethyl)-1H-benzo[d]imidazol-4-yl)oxy)methyl)phenyl)(methyl)amino)-2-oxoethyl)amino)-2,2-difluoro-3-oxopropyl)-N-methylpiperazine-1-carboxamide]
< 0.1	300	0.1 to 1	CNC(=O)C1=NCC(CCC(=O)NCC(=O)N(C)c2ccc(Cl)c(COc3cccc4c3nc(OC)n4Cc3ccccn3)c2Cl)CN1 (stereo not drawn) [Compound 41, 5-(3-((2-((2,4-dichloro-3-(((2-methoxy-1-(pyridin-2-ylmethyl)-1H-benzo[d]imidazol-4-yl)oxy)methyl)phenyl)(methyl)amino)-2-oxoethyl)amino)-3-oxopropyl)-N-methyl-1,4,5,6-tetrahydropyrimidine-2-carboxamide]
< 0.1	194	0.1 to 1	CNC(=O)c1ncc(CCC(=O)NCC(=O)N(C)c2ccc(Cl)c(COc3cccc4c3nc(OC)n4Cc3ccccn3)c2Cl)cn1 [Compound 42, 5-(3-((2-((2,4-dichloro-3-(((2-methoxy-1-(pyridin-2-ylmethyl)-1H-benzo[d]imidazol-4-yl)oxy)methyl)phenyl)(methyl)amino)-2-oxoethyl)amino)-3-oxopropyl)-N-methylpyrimidine-2-carboxamide]
< 0.1	102	< 0.1	CNC(=O)C1CN(CC(=O)NCC(=O)N(C)c2ccc(Cl)c(COc3cccc4c3nc(OC)n4Cc3ccccn3)c2Cl)CCO1 (stereo not drawn) [Compound 44, 4-(2-((2-((2,4-dichloro-3-(((2-methoxy-1-(pyridin-2-ylmethyl)-1H-benzo[d]imidazol-4-yl)oxy)methyl)phenyl)(methyl)amino)-2-oxoethyl)amino)-2-oxoethyl)-N-methylmorpholine-2-carboxamide]
< 0.1	40	< 0.1	CNC(=O)[C@@H]1CN(CC(=O)NCC(=O)N(C)c2ccc(Cl)c(COc3cccc4c3nc(OC)n4Cc3ccccn3)c2Cl)CCO1 [Compound 45, (S)-4-(2-((2-((2,4-dichloro-3-(((2-methoxy-1-(pyridin-2-ylmethyl)-1H-benzo[d]imidazol-4-yl)oxy)methyl)phenyl)(methyl)amino)-2-oxoethyl)amino)-2-oxoethyl)-N-methylmorpholine-2-carboxamide]
